Experimental findings from publication PMC7534323 (Journal of Enzyme Inhibition and Medicinal Chemistry, 2020) are described below.

The structures appear in SMILES notation. Several values for one entry are separate records, joined by “and”; a condition that tells them apart may be missing. Equal values may be shown once.

In test [1] the target is T1, human erythrocyte acetylcholinesterase (AChE) (Homo sapiens, UniProt P22303).
T1 construct: 400-fold diluted solution of haemolysed erythrocytes or 200-fold diluted plasma; from tissue; host or cells: haemolysed erythrocytes from blood of healthy human donors
In words: biochemical. Format: biochemical. On the procedure: (§1) Blood samples were obtained from healthy donors of Blood Donation Centre in Lodz and The Voievodal Specialised Hospital in Lodz. The preparation of erythrocytes for AChE activity measurements and plasma for the assessment of BuChE activity has been described previously.
(§2) The biological sample, consisting of a 400-fold diluted solution of haemolysed erythrocytes or 200-fold diluted plasma was incubated for 15 min (37 °C) with DTNB; the tested compound was then added in a volume of 10 µL. The enzymatic reaction was initiated by addition of a reaction substrate (ATC or BTC).

Test [2] has as its target BuChE in human plasma (Homo sapiens, UniProt P06276). On the procedure:
Due to the high level of variation in the individual concentration and activity of BuChE in human plasma, 32 biological samples were studied.
The kinetic parameters of enzymatic reactions were estimated using linear regression (Hanes-Woolf plots). The following parameters were calculated: the maximal velocity (Vmax) and the Michaelis constant (Km).
The kinetic parameters of BuChE reactions were obtained in a series of experiments using decreasing concentrations of BTC. The curves were analysed using the Hanes-Woolf equation, in which the ratio of the initial substrate concentration [S] to the reaction velocity v is plotted against [S].

Test [3] addresses human plasma butyrylcholinesterase (BuChE) (Homo sapiens, UniProt P06276). Nature of the test: biochemical. On the procedure: as §1, §2

T1 sequence (P22303 other isoform, or with tags, fused parts or gaps): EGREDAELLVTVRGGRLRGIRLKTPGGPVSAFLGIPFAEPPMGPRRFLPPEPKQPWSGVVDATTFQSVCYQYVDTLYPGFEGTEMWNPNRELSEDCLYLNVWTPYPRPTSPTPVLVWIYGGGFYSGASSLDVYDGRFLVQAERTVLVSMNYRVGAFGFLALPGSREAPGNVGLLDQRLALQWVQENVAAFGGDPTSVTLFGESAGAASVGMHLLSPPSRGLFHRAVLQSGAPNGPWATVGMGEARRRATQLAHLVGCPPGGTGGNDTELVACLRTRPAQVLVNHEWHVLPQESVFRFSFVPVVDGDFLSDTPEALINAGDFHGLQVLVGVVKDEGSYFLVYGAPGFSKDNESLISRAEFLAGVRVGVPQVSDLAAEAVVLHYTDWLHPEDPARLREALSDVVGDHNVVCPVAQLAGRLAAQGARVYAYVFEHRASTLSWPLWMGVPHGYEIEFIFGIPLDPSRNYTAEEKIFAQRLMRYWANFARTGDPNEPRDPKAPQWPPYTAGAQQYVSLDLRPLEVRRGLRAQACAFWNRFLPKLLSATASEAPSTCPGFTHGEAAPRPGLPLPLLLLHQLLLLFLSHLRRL
BuChE in human plasma, sequence (P06276 29-602): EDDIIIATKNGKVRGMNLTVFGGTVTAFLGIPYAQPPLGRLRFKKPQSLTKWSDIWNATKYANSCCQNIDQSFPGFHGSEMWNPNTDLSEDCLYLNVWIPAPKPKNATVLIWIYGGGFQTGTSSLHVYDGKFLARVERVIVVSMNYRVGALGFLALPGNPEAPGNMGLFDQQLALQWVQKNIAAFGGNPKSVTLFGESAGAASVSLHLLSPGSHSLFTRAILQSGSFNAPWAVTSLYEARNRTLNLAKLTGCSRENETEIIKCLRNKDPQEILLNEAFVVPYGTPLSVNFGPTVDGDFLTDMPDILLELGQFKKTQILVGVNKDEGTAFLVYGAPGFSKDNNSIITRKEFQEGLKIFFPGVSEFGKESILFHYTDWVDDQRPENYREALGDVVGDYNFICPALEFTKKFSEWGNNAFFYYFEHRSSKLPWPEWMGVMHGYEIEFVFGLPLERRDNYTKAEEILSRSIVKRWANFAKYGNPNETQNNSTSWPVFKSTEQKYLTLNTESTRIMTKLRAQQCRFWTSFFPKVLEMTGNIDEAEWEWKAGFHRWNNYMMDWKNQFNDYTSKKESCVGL
human plasma butyrylcholinesterase (BuChE), sequence (P06276 29-602): as above

In the case of `Cc1ncc(C)n2nc(-c3ccn4cc(-c5ccccc5)nc4n3)nc12` [CPL500036-02], the “maximal inhibition of AChE” value in test [1] (concentration range 0.01−100 µmol/L, vs control (100% of activity), listed as compound 2) was 34.87 ± 1.65% and ~34.87%.

For orientation: IC50 means the point on the concentration scale where inhibition reaches its midpoint. A higher IC50 goes with a need for much substance. Turning to `OCCOCCN1CCN(C2=Nc3ccccc3Sc3ccccc32)CC1` [Quetiapine], in test [2] (from Km and Vmax with and without inhibitor at IC50 concentration), the “type of BuChE inhibition” value is reported as “mixed inhibition”. Besides, the “Vmax(i) (Vmax of the reactions with inhibitor)” value in test [2] (inhibitor at IC50 concentration, substrate BTC, mean ± SD) is recorded as 0.137 ± 0.036 A/min. The IC50 was 6.08 ± 1.64 µM in test [3] and greater than 100 µM in test [1]. Further, the inhibition at 100 µM in test [1] (read-out: maximal inhibitory effect against AChE) came out at 8.82 ± 1.68%.
